33 compounds from patent US9108957B2 (MITSUBISHI TANABE PHARMA CORPORATION, priority 2009, dated 2015) can be followed below.

The structures appear in SMILES notation.

As usually defined, the IC50 is the point on the concentration scale where inhibition reaches its midpoint.

Chain of human recombinant TPK1 (P49841 whole entry): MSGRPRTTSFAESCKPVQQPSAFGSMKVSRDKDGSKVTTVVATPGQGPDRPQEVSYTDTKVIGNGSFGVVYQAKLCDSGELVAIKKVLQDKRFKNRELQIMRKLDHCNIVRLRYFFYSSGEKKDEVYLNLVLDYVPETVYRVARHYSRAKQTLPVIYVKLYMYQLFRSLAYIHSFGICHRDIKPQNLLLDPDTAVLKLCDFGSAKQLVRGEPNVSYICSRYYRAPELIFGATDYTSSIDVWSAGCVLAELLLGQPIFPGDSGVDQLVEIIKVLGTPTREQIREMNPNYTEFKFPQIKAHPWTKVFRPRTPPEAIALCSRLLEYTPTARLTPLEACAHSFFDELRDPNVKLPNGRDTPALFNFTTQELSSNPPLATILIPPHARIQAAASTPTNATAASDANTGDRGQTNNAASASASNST

In the test the target is human recombinant TPK1 (Homo sapiens, UniProt P49841). Put plainly: Inhibitory activity against P-GS1 phosphorylation by TPK1 (Kinase Glo luminescence). The format is biochemical. To be noted: 7.5 μM P-GS1, 10 μM ATP, 25° C. for 16 hours, Kinase Glo Reagent luminescent signal. How it is done:
Inhibitory Activity of the Medicament of the Present Invention Against P-GS1 Phosphorylation by Bovine Cerebral TPK1
A mixture containing 100 mM HEPES-sodium hydroxide (pH 7.2), 1 mM magnesium acetate, 1 mM EGTA, 1 mM dithiothreitol (DTT), 0.02% Tween 20, 7.5 μM P-GS1, 10 μM ATP, human recombinant TPK1 and a compound shown in Table (a final mixture contained 1% DMSO deriving from a solution of a test compound prepared in the presence of 10% DMSO) was used as a reaction system. The phosphorylation was started by adding ATP, and the reaction was conducted at 25° C. for 16 hours. Then equal volume of Kinase Glo Reagent (Promega) was added to the mixture and luminescent signal from the mixture was measured. IC50 for each compound was calculated by setting the data of mixture without enzyme as 0% activity and that without compound as 100% activity.
For `Cc1noc(-c2cccc([C@H]3CN(c4nc(-c5ccncc5)cc(=O)n4C)CCCO3)c2)n1` [Compound A056, (S)-2-[2-[3-(3-methyl-1,2,4-oxadiazol-5-yl)-phenyl]-1,4-oxazepan-4-yl]-3-methyl-6-(pyridin-4-yl)pyrimidin-4(3H)-one], the IC50 came out at 169 nM.
As for `Cc1noc(-c2ccc(C3CCN(c4nc(-c5ccncn5)cc(=O)n4C)CCO3)cc2)n1` (single isomer, unassigned; (+)) [Compound A103, (+)-2-[7-[4-(3-methyl-1,2,4-oxadiazol-5-yl)-phenyl]-1,4-oxazepan-4-yl]-3-methyl-6-(pyrimidin-4-yl)pyrimidin-4(3H)-one], the IC50 worked out at 16.3 nM.
In the case of `Cn1c(N2CCOC(c3ccc(-c4ncon4)cc3)CC2)nc(-c2ccncn2)cc1=O` (single isomer, unassigned; (-)) [Compound A111, (−)-2-[7-[4-(1,2,4-oxadiazol-3-yl)-phenyl]-1,4-oxazepan-4-yl]-3-methyl-6-(pyrimidin-4-yl)pyrimidin-4(3H)-one], the IC50 came out at 29.5 nM.
Take `COc1ccccc1C1CCN(c2nc(-c3ccncn3)cc(=O)n2C)CCO1` (stereo not drawn) [Compound A102, 2-[7-(2-methoxyphenyl)-1,4-oxazepan-4-yl]-3-methyl-6-(pyrimidin-4-yl)pyrimidin-4(3H)-one]: the IC50 came out at 16.3 nM.
Consider `Cc1nc(-c2ccc(C3CCN(c4nc(-c5ccncc5F)cc(=O)n4C)CCO3)cc2)no1` (single isomer, unassigned; (-)) [Compound A097, (−)-2-[7-[4-(5-methyl-1,2,4-oxadiazol-3-yl)-phenyl]-1,4-oxazepan-4-yl]-6-(3-fluoropyridin-4-yl)-3-methylpyrimidin-4(3H)-one], for which the IC50 came out at 11.3 nM.
Consider `Cn1c(N2CCCOC(c3ccccc3)C2)nc(-c2ccncn2)cc1=O` (stereo not drawn) [Compound A026, 2-(2-phenyl-1,4-oxazepan-4-yl)-3-methyl-6-(pyrimidin-4-yl)pyrimidin-4(3H)-one], for which the IC50 was 14.6 nM.
As for `Cn1c(N2CCCO[C@@H](c3cccc(C(N)=O)c3)C2)nc(-c2ccncc2F)cc1=O` [Compound A012], the IC50 was 6.7 nM.
`Cn1c(N2CCOC(c3ccc(Br)cc3)CC2)nc(-c2ccncn2)cc1=O` (single isomer, unassigned; (+)) [Compound A096, (+)-2-[7-(4-bromophenyl)-1,4-oxazepan-4-yl]-3-methyl-6-(pyrimidin-4-yl)pyrimidin-4(3H)-one]: the IC50 was determined as 10.8 nM.
On to `Cc1noc(-c2ccc(C3CCN(c4nc(-c5ccncc5F)cc(=O)n4C)CCO3)cc2)n1` (single isomer, unassigned; (+)) [Compound A090, (+)-2-[7-[4-(3-methyl-1,2,4-oxadiazol-5-yl)-phenyl]-1,4-oxazepan-4-yl]-6-(3-fluoropyridin-4-yl)-3-methylpyrimidin-4(3H)-one], for which the IC50 was 6.1 nM.
Consider `Cc1noc(-c2ccc(C3CCN(c4nc(-c5ccncn5)cc(=O)n4C)CCO3)cc2)n1` (single isomer, unassigned; (-)) [Compound A121, (−)-2-[7-[4-(3-methyl-1,2,4-oxadiazol-5-yl)-phenyl]-1,4-oxazepan-4-yl]-3-methyl-6-(pyrimidin-4-yl)pyrimidin-4(3H)-one], for which the IC50 is 83.4 nM.
In the case of `Cn1c(N2CCOC(c3ccc(F)cc3)CC2)nc(-c2ccncc2F)cc1=O` (stereo not drawn) [Compound A108, 2-[7-(4-fluorophenyl)-1,4-oxazepan-4-yl]-6-(3-fluoropyridin-4-yl)-3-methylpyrimidin-4(3H)-one] it was 24.6 nM.
For `Cn1c(N2CCOCCC2c2ccccc2)nc(-c2ccncc2F)cc1=O` (stereo not drawn) [Compound A066, 6-(3-fluoropyridin-4-yl)-3-methyl-2-(5-phenyl-1,4-oxazepan-4-yl)pyrimidin-4(3H)-one], the IC50 worked out at 5.5 nM.
`Cn1c(N2CCCO[C@@H](c3ccc(C(N)=O)cc3)C2)nc(-c2ccncc2)cc1=O` [Compound A017, (S)-2-[2-(4-aminocarbonylphenyl)-1,4-oxazepan-4-yl]-3-methyl-6-(pyridin-4-yl)pyrimidin-4(3H)-one]: the IC50 came to 11 nM.
`Cn1c(N2CCCO[C@H](c3ccc(F)cc3)C2)nc(-c2ccncc2)cc1=O` [Compound A057, (R)-2-(2-(4-fluorophenyl)-1,4-oxazepan-4-yl)-3-methyl-6-(pyridin-4-yl)pyrimidin-4(3H)-one]: the IC50 was determined as 207 nM.
Take `Cc1noc(-c2ccc(C3CCN(c4nc(-c5ccncc5F)cc(=O)n4C)CCO3)cc2)n1` (single isomer, unassigned; (-)) [Compound A113, (−)-2-[7-[4-(3-methyl-1,2,4-oxadiazol-5-yl)-phenyl]-1,4-oxazepan-4-yl]-6-(3-fluoropyridin-4-yl)-3-methylpyrimidin-4(3H)-one]: the IC50 was determined as 30 nM.
The same measure for `Cc1nc(-c2ccc([C@H]3CN(c4nc(-c5ccncc5)cc(=O)n4C)CCCO3)cc2)no1` [Compound A050, (S)-2-[2-[4-(5-methyl-[1,2,4]oxadiazol-3-yl)-phenyl]-1,4-oxazepan-4-yl]-3-methyl-6-(pyridin-4-yl)pyrimidin-4(3H)-one]: 77.4 nM; for `Cc1nc(-c2cccc([C@@H]3CN(c4nc(-c5ccncc5F)cc(=O)n4C)CCCO3)c2)no1` [Compound A055]: 164 nM; for `Cn1c(N2CCOC(c3ccccc3F)CC2)nc(-c2ccncn2)cc1=O` (stereo not drawn) [Compound A105, 2-[7-(2-fluorophenyl)-1,4-oxazepan-4-yl]-3-methyl-6-(pyrimidin-4-yl)pyrimidin-4(3H)-one]: 18.7 nM.
For the compound `Cn1c(N2CCCO[C@@H](c3ccc(Br)cc3)C2)nc(-c2ccncn2)cc1=O` [Compound A009, (S)-2-[2-(4-bromophenyl)-1,4-oxazepan-4-yl]-3-methyl-6-(pyrimidin-4-yl)pyrimidin-4(3H)-one], the IC50 stood at 5.2 nM.
Turning to `Cn1c(N2CCOCC(c3ccc(-c4ncon4)cc3)C2)nc(-c2ccncn2)cc1=O` (stereo not drawn) [Compound A082, 2-[6-[4-(1,2,4-oxadiazol-3-yl)-phenyl]-1,4-oxazepan-4-yl]-3-methyl-6-(pyrimidin-4-yl)-pyrimidin-4(3H)-one], the IC50 came to 13.2 nM.
On to `Cn1c(N2CCOC(c3ccc(-c4ncon4)cc3)CC2)nc(-c2ccncc2F)cc1=O` (single isomer, unassigned; (+)) [Compound A089], for which the IC50 stood at 5.4 nM.
Regarding `Cn1c(N2CCCO[C@H](c3cccc(C(N)=O)c3)C2)nc(-c2ccncc2)cc1=O` [Compound A048, (R)-2-[2-(3-aminocarbonylphenyl)-1,4-oxazepan-4-yl]-3-methyl-6-(pyridin-4-yl)pyrimidin-4(3H)-one], the IC50 stood at 68.8 nM.
Take `Cn1c(N2CCCO[C@H](c3ccc(F)cc3)C2)nc(-c2ccncc2F)cc1=O` [Compound A054, (R)-2-[2-(4-fluorophenyl)-1,4-oxazepan-4-yl]-6-(3-fluoropyridin-4-yl)-3-methylpyrimidin-4(3H)-one]: the IC50 was determined as 111 nM.
In the case of `Cc1nc(-c2cccc([C@H]3CN(c4nc(-c5ccncc5F)cc(=O)n4C)CCCO3)c2)no1` [Compound A016, (S)-2-[2-[3-(5-methyl-1,2,4-oxadiazol-3-yl)-phenyl]-1,4-oxazepan-4-yl]-6-(3-fluoropyridin-4-yl)-3-methylpyrimidin-4(3H)-one], the IC50 turned out to be 10.3 nM.
For the compound `Cn1c(N2CCCO[C@@H](c3ccc(F)cc3)C2)nc(-c2ccncc2)cc1=O` [Compound A022, (S)-2-[2-(4-fluorophenyl)-1,4-oxazepan-4-yl]-3-methyl-6-(pyridin-4-yl)pyrimidin-4(3H)-one], the IC50 is 12.5 nM.
Consider `Cn1c(N2CCCOC(c3ccccc3)C2)nc(-c2ccncc2F)cc1=O` (stereo not drawn) [Compound A006, 2-(2-phenyl-1,4-oxazepan-4-yl)-6-(3-fluoropyridin-4-yl)-3-methylpyrimidin-4(3H)-one], for which the IC50 turned out to be 2.3 nM.
In the case of `Cn1c(N2CCCN(c3ccc(F)cc3)CC2)nc(-c2ccncc2)cc1=O` [Compound A005, 2-[4-(4-fluorophenyl)-1,4-diazepan-1-yl]-3-methyl-6-(pyridin-4-yl)pyrimidin-4(3H)-one], the IC50 was determined as 84.2 nM.
With `Cn1c(N2CCCO[C@@H](c3cccc(Br)c3)C2)nc(-c2ccncc2)cc1=O` [Compound A024, (S)-2-[2-(3-bromophenyl)-1,4-oxazepan-4-yl]-3-methyl-6-(pyridin-4-yl)pyrimidin-4(3H)-one], the IC50 came out at 13 nM.
As to `Cn1c(N2CCCO[C@@H](c3cccc(C#N)c3)C2)nc(-c2ccncn2)cc1=O` [Compound A039, (S)-2-[2-(3-cyanophenyl)-1,4-oxazepan-4-yl]-3-methyl-6-(pyrimidin-4-yl)pyrimidin-4(3H)-one], the IC50 came to 31.9 nM.
The same measure for `Cn1c(N2CCCO[C@@H](c3cccc(C(N)=O)c3)C2)nc(-c2ccncn2)cc1=O` [Compound A015, (S)-2-[2-(3-aminocarbonylphenyl)-1,4-oxazepan-4-yl]-3-methyl-6-(pyrimidin-4-yl)pyrimidin-4(3H)-one]: 9.3 nM; for `Cn1c(N2CCOC(c3ccc(Br)cc3)CC2)nc(-c2ccncc2F)cc1=O` (single isomer, unassigned; (-)) [Compound A120, (−)-2-(7-(4-bromophenyl)-1,4-oxazepan-4-yl)-6-(3-fluoropyridin-4-yl)-3-methylpyrimidin-4(3H)-one]: 82.8 nM; for `CC1CCOCCN1c1nc(-c2ccncn2)cc(=O)n1C` (stereo not drawn) [Compound A070, 3-methyl-2-(5-methyl-1,4-oxazepan-4-yl)-6-(pyrimidin-4-yl)pyrimidin-4(3H)-one]: 17.3 nM.
Take `Cc1noc(-c2ccc([C@H]3CN(c4nc(-c5ccncn5)cc(=O)n4C)CCCO3)cc2)n1` [Compound A031, (S)-2-[2-[4-(3-methyl-1,2,4-oxadiazol-5-yl)-phenyl]-1,4-oxazepan-4-yl]-3-methyl-6-(pyrimidin-4-yl)pyrimidin-4(3H)-one]: the IC50 was 20.2 nM.
